In PubChem BioAssay AID1963839 (Molecular Pharmacology Branch, DTP, NCI, 2024):

System: 817829-284-R-J1-PDC complex spheroid viability
Experiment: Anticancer human tumor 817829-284-R-J1-PDC patient-derived colon adenocarcinoma cell line growth inhibition [POLQ]
Settings: for IC50: curve of first compound; for viability, T/C: stronger effect = lower value
Experimental: Multicellular complex tumor spheroid response to Polymerase (POL) inhibitors (novobiocin, ART-558, RP6685) in combination with a variety of drugs and investigational agents in selected tumor cell lines
The POL inhibitors (novobiocin, ART-558, and RP6685) were evaluated both individually and in combination with standard of care and investigational anticancer small molecules within a complex spheroid model of solid tumors. . Complex spheroids include a stromal component modeled by human endothelial cells (HUVEC) and fibroblasts modeled by human mesenchymal stem cells (MSCs). The concentration ranges selected for each drug and investigational agent were based upon clinically achievable concentrations if the clinical Cmax of the agent was known.
Compounds. The drugs and investigational agents: novobiocin (NSC847541), ART-558 (NSC835418), RP-6685 (NSC848927), peposertib (NSC802822), ceralasertib (NSC780249), elimusertib (NSC800525), camonsertib (NSC841442), AZD-1390 (NSC803789), olaparib (NSC753686), talazoparib (NSC767125), rucaparib (NSC756644), sotorasib (NSC818433), MRTX-1133 (NSC836407), SN-38 (NSC673596), topotecan (NSC609699), epotoside (NSC141540), doxorubicin (NSC123127), gemcitabine (NSC613327), 5-fluorouracil (NSC19893), paclitaxel (NSC125973), vemurafenib (NSC761431), MSA-2 (NSC828583), SN-011 (NSC837082), adavosertib (NSC754352), prexasertib (NSC758257), carboplatin (NSC241240) and oxaliplatin (NSC266046), were obtained from the National Cancer Institute (NCI) Developmental Therapeutics Program Chemical Repository (21). The FDA-approved anticancer drug set is available from the Developmental Therapeutics Program at https://dtp.cancer.gov/organization/dscb/obtaining/. […] The stock solutions were prepared in dimethyl sulfoxide (DMSO, Sigma-Aldrich, St. Louis, MO, cat. D2650), except for the platinum compounds which were prepared in saline (Quality Biological, Gaithersburg, MD, cat. 114-055-101), at 800-fold the tested concentration and stored at -70 degrees C prior to their use. All drugs and investigational agents were tested over a range starting from a high concentration at or near the clinical Cmax and decreasing in half-log increments. If the clinical Cmax for an agent had not been determined, the highest concentration tested was 10 microM, except for SN-38, which was tested at a high concentration of 1 microM.
Cell Culture. All cells were maintained in an incubator at 37 degrees C and 5% CO2 with 95% humidity. The PDC lines were cultured according to standard operating procedures established by the NCI PDMR (https://pdmr.cancer.gov). Table 3 of the manuscript, lists the cell lines along with the number of the three cell types plated to form the mct-spheroids and media for tumor cell growth. After thawing, all PDC lines, except 997537-175-T-J1-PDC and 415267-285-R-J2-PDC, were cultured in Matrigel-coated flasks prepared with a working solution of 1X Ham's F-12 nutrient mix, without supplementation (Thermo Fisher Scientific, cat. 11765054), 100 U/mL penicillin-streptomycin (Thermo Fisher Scientific, cat. 15140122), and 2.5% Matrigel (Corning Inc., Corning, NY, cat. 354248) for the first three passages. The two PDC lines 997537-175-T-J1-PDC and 415267-285-R-J2-PDC were cultured on uncoated flasks. The 857933-349-R-J2-PDC line was cultured in 6C/Colon 1B media containing advanced DMEM/F-12 (Thermo Fisher Scientific, cat. 12634028), 10 mM HEPES (Thermo Fisher Scientific, cat. 15630080), 1X GlutaMAX supplement (Thermo Fisher Scientific, cat. 35050061), 0.1 mg/mL primocin (InvivoGen, San Diego, CA, cat. ant-pm-2), 10% defined fetal bovine serum, heat inactivated (HyClone Laboratories Inc., Logan, UT, cat. SH30070.03HI), 50% L-WRN conditioned media (ATCC, cat. CRL-3276), 1.25 mM N-Acetyl-L-cysteine (Sigma-Aldrich, cat. A9165), 10 mM nicotinamide (Sigma-Aldrich, cat. N0636), 1X B-27 supplement (Thermo Fisher Scientific, cat. 17504044), 1X N-2 supplement (Thermo Fisher Scientific, cat. […]

[1] = second compound 0.0316 µM, first compound 0.0316 µM
[2] = second compound 0.0316 µM, first compound 0.1 µM
[3] = second compound 0.0316 µM, first compound 0.316 µM
[4] = second compound 0.0316 µM, first compound 1 µM
[5] = second compound 0.0316 µM, first compound 3.16 µM
[6] = second compound 0.0316 µM, first compound 10 µM
[7] = second compound 0.1 µM, first compound 0.0316 µM
[8] = second compound 0.1 µM, first compound 0.1 µM
[9] = second compound 0.1 µM, first compound 0.316 µM
[10] = second compound 0.1 µM, first compound 1 µM
[11] = second compound 0.1 µM, first compound 3.16 µM
[12] = second compound 0.1 µM, first compound 10 µM
[13] = second compound 0.316 µM, first compound 0.0316 µM
[14] = second compound 0.316 µM, first compound 0.1 µM
[15] = second compound 0.316 µM, first compound 0.316 µM
[16] = second compound 0.316 µM, first compound 1 µM
[17] = second compound 0.316 µM, first compound 3.16 µM
[18] = second compound 0.316 µM, first compound 10 µM
[19] = second compound 1 µM, first compound 0.0316 µM
[20] = second compound 1 µM, first compound 0.1 µM
[21] = second compound 1 µM, first compound 0.316 µM
[22] = second compound 1 µM, first compound 1 µM
[23] = second compound 1 µM, first compound 3.16 µM
[24] = second compound 1 µM, first compound 10 µM
[25] = second compound 3.16 µM, first compound 0.0316 µM
[26] = second compound 3.16 µM, first compound 0.1 µM
[27] = second compound 3.16 µM, first compound 0.316 µM
[28] = second compound 3.16 µM, first compound 1 µM
[29] = second compound 3.16 µM, first compound 3.16 µM
[30] = second compound 3.16 µM, first compound 10 µM
[31] = second compound 10 µM, first compound 0.0316 µM
[32] = second compound 10 µM, first compound 0.1 µM
[33] = second compound 10 µM, first compound 0.316 µM
[34] = second compound 10 µM, first compound 1 µM
[35] = second compound 10 µM, first compound 3.16 µM
[36] = second compound 10 µM, first compound 10 µM
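Further: spheroids exposed to compounds for 7 days.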
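Wherever viability, T/C is given: 100% = DMSO vehicle-treated spheroids.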

SMILES: C#Cc1c(F)ccc2cc(O)cc(-c3ncc4c(N5CC6CCC(C5)N6)nc(OCC56CCCN5CC(F)C6)nc4c3F)c12 (stereo unspecified) + Nc1ccc(C#CCN(C(=O)Cc2ncc(C(F)(F)F)cc2C(F)(F)F)c2ccc(F)cc2)nn1
- IC50 (second compound 0.0316 µM): > 10 µM
- IC50 (second compound 0.1 µM): > 10 µM
- IC50 (second compound 0.316 µM): > 10 µM
- IC50 (second compound 1 µM): > 10 µM
- IC50 (second compound 3.16 µM): > 10 µM
- IC50 (second compound 10 µM): > 10 µM
- viability, T/C [1]: 78.6%
- viability, T/C [2]: 105%
- viability, T/C [3]: 104%
- viability, T/C [4]: 93.8%
- viability, T/C [5]: 114%
- viability, T/C [6]: 84.2%
- viability, T/C [7]: 92.1%
- viability, T/C [8]: 87.9%
- viability, T/C [9]: 93%
- viability, T/C [10]: 92.4%
- viability, T/C [11]: 103%
- viability, T/C [12]: 92.7%
- viability, T/C [13]: 101%
- viability, T/C [14]: 94.5%
- viability, T/C [15]: 105%
- viability, T/C [16]: 86.8%
- viability, T/C [17]: 116%
- viability, T/C [18]: 91.8%
- viability, T/C [19]: 106%
- viability, T/C [20]: 88.4%
- viability, T/C [21]: 98.6%
- viability, T/C [22]: 91.6%
- viability, T/C [23]: 97.9%
- viability, T/C [24]: 101%
- viability, T/C [25]: 97.5%
- viability, T/C [26]: 99.8%
- viability, T/C [27]: 101%
- viability, T/C [28]: 86.9%
- viability, T/C [29]: 93.2%
- viability, T/C [30]: 95.7%
- viability, T/C [31]: 95.5%
- viability, T/C [32]: 102%
- viability, T/C [33]: 73.8%
- viability, T/C [34]: 102%
- viability, T/C [35]: 96.3%
- viability, T/C [36]: 80.4%

SMILES: C=CC(=O)N1CCN(c2nc(=O)n(-c3c(C)ccnc3C(C)C)c3nc(-c4c(O)cccc4F)c(F)cc23)C(C)C1 (stereo unspecified) + Nc1ccc(C#CCN(C(=O)Cc2ncc(C(F)(F)F)cc2C(F)(F)F)c2ccc(F)cc2)nn1
- IC50 (second compound 0.0316 µM): > 10 µM
- IC50 (second compound 0.1 µM): > 10 µM
- IC50 (second compound 0.316 µM): > 10 µM
- IC50 (second compound 1 µM): > 10 µM
- IC50 (second compound 3.16 µM): 9.67 µM
- IC50 (second compound 10 µM): > 10 µM
- viability, T/C [1]: 77.4%
- viability, T/C [2]: 103%
- viability, T/C [3]: 97.2%
- viability, T/C [4]: 93.5%
- viability, T/C [5]: 91.7%
- viability, T/C [6]: 51.3%
- viability, T/C [7]: 95%
- viability, T/C [8]: 110%
- viability, T/C [9]: 101%
- viability, T/C [10]: 99.8%
- viability, T/C [11]: 84.2%
- viability, T/C [12]: 60.5%
- viability, T/C [13]: 104%
- viability, T/C [14]: 91.3%
- viability, T/C [15]: 96.6%
- viability, T/C [16]: 98%
- viability, T/C [17]: 93.5%
- viability, T/C [18]: 61.6%
- viability, T/C [19]: 102%
- viability, T/C [20]: 119%
- viability, T/C [21]: 112%
- viability, T/C [22]: 97.8%
- viability, T/C [23]: 94.5%
- viability, T/C [24]: 52.9%
- viability, T/C [25]: 96%
- viability, T/C [26]: 89%
- viability, T/C [27]: 102%
- viability, T/C [28]: 90.8%
- viability, T/C [29]: 76.2%
- viability, T/C [30]: 49.2%
- viability, T/C [31]: 114%
- viability, T/C [32]: 84.1%
- viability, T/C [33]: 90.6%
- viability, T/C [34]: 90%
- viability, T/C [35]: 79.8%
- viability, T/C [36]: 51%

SMILES: Cn1ncnc1[C@H]1c2n[nH]c(=O)c3cc(F)cc(c23)N[C@@H]1c1ccc(F)cc1 + Nc1ccc(C#CCN(C(=O)Cc2ncc(C(F)(F)F)cc2C(F)(F)F)c2ccc(F)cc2)nn1
- IC50 (second compound 0.0316 µM): 0.0389 µM
- IC50 (second compound 0.1 µM): 0.0435 µM
- IC50 (second compound 0.316 µM): 0.0214 µM
- IC50 (second compound 1 µM): 0.0375 µM
- IC50 (second compound 3.16 µM): 0.0489 µM
- IC50 (second compound 10 µM): 0.0265 µM
- viability, T/C (second compound 0.0316 µM, first compound 0.000316 µM): 97.7%
- viability, T/C (second compound 0.0316 µM, first compound 0.001 µM): 82.9%
- viability, T/C (second compound 0.0316 µM, first compound 0.00316 µM): 85%
- viability, T/C (second compound 0.0316 µM, first compound 0.01 µM): 63.8%
- viability, T/C [1]: 55.5%
- viability, T/C [2]: 35%
- viability, T/C (second compound 0.1 µM, first compound 0.000316 µM): 79.9%
- viability, T/C (second compound 0.1 µM, first compound 0.001 µM): 89.2%
- viability, T/C (second compound 0.1 µM, first compound 0.00316 µM): 76.1%
- viability, T/C (second compound 0.1 µM, first compound 0.01 µM): 69.5%
- viability, T/C [7]: 58.7%
- viability, T/C [8]: 30.9%
- viability, T/C (second compound 0.316 µM, first compound 0.000316 µM): 107%
- viability, T/C (second compound 0.316 µM, first compound 0.001 µM): 92.5%
- viability, T/C (second compound 0.316 µM, first compound 0.00316 µM): 64.8%
- viability, T/C (second compound 0.316 µM, first compound 0.01 µM): 64.2%
- viability, T/C [13]: 47.4%
- viability, T/C [14]: 31.7%
- viability, T/C (second compound 1 µM, first compound 0.000316 µM): 94.8%
- viability, T/C (second compound 1 µM, first compound 0.001 µM): 93.2%
- viability, T/C (second compound 1 µM, first compound 0.00316 µM): 69.2%
- viability, T/C (second compound 1 µM, first compound 0.01 µM): 65.6%
- viability, T/C [19]: 55.2%
- viability, T/C [20]: 37.1%
- viability, T/C (second compound 3.16 µM, first compound 0.000316 µM): 87.3%
- viability, T/C (second compound 3.16 µM, first compound 0.001 µM): 93.8%
- viability, T/C (second compound 3.16 µM, first compound 0.00316 µM): 63.9%
- viability, T/C (second compound 3.16 µM, first compound 0.01 µM): 67.4%
- viability, T/C [25]: 58%
- viability, T/C [26]: 41%
- viability, T/C (second compound 10 µM, first compound 0.000316 µM): 107%
- viability, T/C (second compound 10 µM, first compound 0.001 µM): 80.1%
- viability, T/C (second compound 10 µM, first compound 0.00316 µM): 80.5%
- viability, T/C (second compound 10 µM, first compound 0.01 µM): 61.6%
- viability, T/C [31]: 49.7%
- viability, T/C [32]: 32.4%
